# Measurements reported in patent US9078916B2, “Method for producing and using a copolymer of sodium carboxymethyl cellulose and gossypol” (Limited Liability Company “Nearmedic Plus”, priority 2010, dated 2015).
# Entries after “also recorded” stand apart in the source; their conditions may differ.
# Tested on: 6-year children with autistic spectrum disorders and severe cognitive impairments
# Assay: Complex therapy of 6-year children, copolymer tablets added to basic therapy with neuroleptics
# Type: in vivo
# From the text: The method can be used for the treatment of autistic disorders and cognitive impairments in 6-year children. A treatment regimen is selected by a specialist depending on the severity of a disease, condition and age of a patient. In particular, the treatment can be performed according to the following regimen: administration of a medicament 3 times per day for 5 days followed by the 5-day break. This ten-day cycle is repeated […]. The total duration of the treatment is 30 days. A dose of the active agent is 36 mg/day. Then, the course should be repeated.
# The efficacy and safety of the use of sodium carboxymethyl cellulose polymer with a degree of substitution of 0.35 to 0.80 and gossypol, of formula (I) in a complex therapy of 6-year children with autistic spectrum disorders and severe cognitive impairments were studied. The children were administered with a medicament comprising a copolymer of sodium carboxymethyl cellulose with a degree of substitution of 0.35 to 0.80 and gossypol, of formula (I) (tablets containing 12 mg of the active agent, which composition is shown in Table 2) on the background of basic therapy with neuroleptics such as neuleptil, haloperidol, aminazine, teraligen, triphtazine, eglonil, azaleptin chlorprothixene. Antidepressants (e.g., anafranil) and anticonvulsants (finlepsin, trileptal, or topamax) were used in some cases. Neuroleptics, antidepressants and anticonvulsants were used in optimal therapeutic doses. […] When the therapy was supplemented with a medicament comprising a copolymer of sodium carboxymethyl cellulose with a degree of substitution of 0.35 to 0.80 and gossypol, of formula (I), the manifestations of encopresis and enuresis ceased, catatonic disorders decreased, cognitive functions improved, and speech appeared. In patients with mild to moderate autism, restricted repetitive behavior disappeared.
# [1] = patients with very severe autism, therapy supplemented with the medicament
substance,measurement,setting,value
sodium salt of copolymer of carboxymethyl cellulose with a degree of substitution of 0.35 to 0.80 and gossypol,resistance to therapy with neuroleptics / psychotropic drugs,"added to basic therapy, especially patients with very severe autism, 12 mg tablets",decreased; also recorded: elimination
same,negative side effects on a patient,in vivo,does not have negative side effects
same,tolerability,in vivo,well tolerable
same,toxic and allergic reactions,in vivo,not reported
same,restricted repetitive behavior,patients with mild to moderate autism,disappeared
same,catatonic disorders,[1],decreased
same,manifestations of encopresis and enuresis,[1],ceased
same,speech,[1],appeared
same,cognitive functions,therapy supplemented with the medicament,improved; also recorded: significant improvement
same,mental condition of the patients,when administering the medicament,improved
